{"source": "paper PMC2945410", "about": "(Journal of molecular biology, 2010)", "key": {"E. coli YahA": {"target": "T1, E. coli YahA (Escherichia coli, UniProt P21514)", "T1 sequence (P21514 73-362)": "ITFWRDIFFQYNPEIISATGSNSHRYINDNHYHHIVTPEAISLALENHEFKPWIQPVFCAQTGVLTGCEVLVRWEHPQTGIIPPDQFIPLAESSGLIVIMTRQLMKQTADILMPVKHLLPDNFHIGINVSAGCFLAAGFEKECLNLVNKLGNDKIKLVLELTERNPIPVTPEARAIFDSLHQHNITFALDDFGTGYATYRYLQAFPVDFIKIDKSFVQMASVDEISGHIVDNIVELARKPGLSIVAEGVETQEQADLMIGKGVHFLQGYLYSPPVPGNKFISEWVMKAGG", "assay": "p-nitrophenol release, absorbance at […] nm", "type": "biochemical", "settings": "10 mM bis-pNPP, 50 mM HEPES pH 7.5, 2 mM MnCl2"}, "TBD1660": {"target": "T2, TBD1660 (Thiobacillus denitrificans, UniProt Q3SIB5)", "T2 sequence (Q3SIB5 443-698)": "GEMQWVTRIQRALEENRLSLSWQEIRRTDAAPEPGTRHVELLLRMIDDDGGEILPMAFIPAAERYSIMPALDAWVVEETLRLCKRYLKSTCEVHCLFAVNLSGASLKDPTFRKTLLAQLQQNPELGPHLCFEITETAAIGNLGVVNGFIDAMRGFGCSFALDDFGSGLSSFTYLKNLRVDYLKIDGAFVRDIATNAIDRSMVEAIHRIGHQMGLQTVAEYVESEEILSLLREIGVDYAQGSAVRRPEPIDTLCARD", "assay": "p-nitrophenol release, absorbance at […] nm", "type": "biochemical", "settings": "10 mM bis-pNPP, 50 mM HEPES pH 7.5, 2 mM MnCl2"}}}
{"compound": "O=[N+]([O-])c1ccc(OP(=O)(O)Oc2ccc([N+](=O)[O-])cc2)cc1", "note": "[bis-pNPP, bis-p-nitrophenyl phosphate]", "values": [{"measurement": "p-nitrophenol release, absorbance at 410 nm", "setting": "E. coli YahA", "result": "E. coli YahA and T. denitrificans TBD1660 showing the highest activities"}, {"measurement": "p-nitrophenol release, absorbance at 410 nm", "setting": "TBD1660", "result": "E. coli YahA and T. denitrificans TBD1660 showing the highest activities"}]}
